Measured values taken from PubChem BioAssay AID322 (DTP/NCI, 2004).
“And” between values parts separate entries of the source, which are not always exact repeats. Identical values can stand only once. Toxic doses and inconclusive results are not listed.

System: CD2F1 mice, P388/ADR leukemia ip, median survival T/C
Assay: NCI In Vivo Anticancer Drug Screen. Data for tumor model P388 Leukemia resistant to Adriamycin; NSC 123127, Developed at Scr 08 (intraperitoneal) in CD2F1 (CDF1) mice
Settings: endpoint: median survival time, higher = longer survival
Experimental: The antitumor activity of compounds was measured in mice bearing transplantable tumors. Survival or tumor size were measured and the results are expressed as the measurement made in the treated group (T) divided by the measurement made in the vehicle treated control group (C). The tumor model used in this assay is P388 Leukemia resistant to Adriamycin; NSC 123127, Developed at Scr 08 (intraperitoneal) in CD2F1 (CDF1) mice

[1] = dose: 1.56 mg/kg/injection, schedule: Q01DX005 (ip), vehicle: water
[2] = dose: 3.12 mg/kg/injection, schedule: Q01DX005 (ip), vehicle: water
[3] = dose: 6.25 mg/kg/injection, schedule: Q01DX005 (ip), vehicle: water
[4] = dose: 12.5 mg/kg/injection, schedule: Q01DX005 (ip), vehicle: water
[5] = dose: 50.0 mg/kg/injection, schedule: Q01DX005 (ip), vehicle: Klucel (hydroxypropylcellulose) (HPC)
[6] = dose: 6.25 mg/kg/injection, schedule: Q01DX005 (ip), vehicle: saline with Tween-80

## O=C(O)Cc1cccc2c(=O)cc(-c3ccccc3)oc12
dose: 24.12 mg/kg/injection, schedule: Q01DX005 (ip), vehicle: saline
  T/C: 102 % of control
dose: 30.0 mg/kg/injection, schedule: Q01DX009 (ip), vehicle: saline
  T/C: 114 % of control
dose: 30.0 mg/kg/injection, schedule: Q01DX009 (ip), vehicle: sodium bicarbonate
  T/C: 124 % of control
dose: 40.2 mg/kg/injection, schedule: Q01DX005 (ip), vehicle: saline
  T/C: 118 % of control
dose: 44.0 mg/kg/injection, schedule: Q01DX009 (ip), vehicle: sodium bicarbonate
  T/C: 167 % of control
dose: 60.0 mg/kg/injection, schedule: Q04DX002 (ip), vehicle: sodium bicarbonate
  T/C: 118 % of control
dose: 67.0 mg/kg/injection, schedule: Q01DX009 (ip), vehicle: saline
  T/C: 187 % of control
dose: 67.0 mg/kg/injection, schedule: Q01DX009 (ip), vehicle: sodium bicarbonate
  T/C: 187 % of control and 237 % of control and 245 % of control
dose: 90.0 mg/kg/injection, schedule: Q04DX002 (ip), vehicle: sodium bicarbonate
  T/C: 118 % of control
dose: 100.0 mg/kg/injection, schedule: Q01DX009 (ip), vehicle: sodium bicarbonate
  T/C: 207 % of control and 240 % of control and 291 % of control
dose: 111.67 mg/kg/injection, schedule: Q01DX005 (ip), vehicle: saline
  T/C: 161 % of control
dose: 134.0 mg/kg/injection, schedule: Q04DX002 (ip), vehicle: sodium bicarbonate
  T/C: 112 % of control
dose: 150.0 mg/kg/injection, schedule: Q01DX009 (ip), vehicle: saline
  T/C: 104 % of control
dose: 150.0 mg/kg/injection, schedule: Q01DX009 (ip), vehicle: sodium bicarbonate
  T/C: 233 % of control and 260 % of control and 124 % of control
dose: 175.0 mg/kg/injection, schedule: Q01DX009 (ip), vehicle: sodium bicarbonate
  T/C: 103 % of control
dose: 186.12 mg/kg/injection, schedule: Q01DX005 (ip), vehicle: saline
  T/C: 164 % of control

## CC1(C)N=C(N)N=C(N)N1c1ccc(CCCCc2ccc(S(=O)(=O)F)cc2Cl)c(Cl)c1
dose: 18.0 mg/kg/injection, schedule: Q01DX009 (ip), vehicle: saline with Tween-80
  T/C: 87 % of control
dose: 27.0 mg/kg/injection, schedule: Q01DX009 (ip), vehicle: saline with Tween-80
  T/C: 89 % of control and 101 % of control
dose: 40.0 mg/kg/injection, schedule: Q01DX009 (ip), vehicle: saline with Tween-80
  T/C: 88 % of control and 102 % of control
dose: 60.0 mg/kg/injection, schedule: Q01DX009 (ip), vehicle: saline with Tween-80
  T/C: 112 % of control
dose: 90.0 mg/kg/injection, schedule: Q01DX009 (ip), vehicle: saline with Tween-80
  T/C: 91 % of control and 110 % of control
dose: 110.0 mg/kg/injection, schedule: Q01DX009 (ip), vehicle: saline with Tween-80
  T/C: 115 % of control

## CCCCCCCCCCCCN1C(C)=CS/C1=C\C=C\c1scc(C)[n+]1CCCCCCCCCCCC
dose: 0.75 mg/kg/injection, schedule: Q01DX005 (ip), vehicle: saline with Tween-80
  T/C: 123 % of control
dose: 1.5 mg/kg/injection, schedule: Q01DX005 (ip), vehicle: saline with Tween-80
  T/C: 117 % of control
dose: 3.0 mg/kg/injection, schedule: Q01DX005 (ip), vehicle: saline with Tween-80
  T/C: 109 % of control

## CCOc1ccc(-c2nc3ccc(-c4nc5ccc(N6CCN(C)CC6)cc5[nH]4)cc3[nH]2)cc1
[1]
  T/C: 109 % of control
[2]
  T/C: 106 % of control
[3]
  T/C: 107 % of control
[4]
  T/C: 91 % of control

## CCOC1NC(=O)Oc2ccccc21 (stereo unspecified)
dose: 3.12 mg/kg/injection, schedule: Q01DX005 (ip), vehicle: Klucel (hydroxypropylcellulose) (HPC)
  T/C: 101 % of control
dose: 6.25 mg/kg/injection, schedule: Q01DX005 (ip), vehicle: Klucel (hydroxypropylcellulose) (HPC)
  T/C: 100 % of control
dose: 12.5 mg/kg/injection, schedule: Q01DX005 (ip), vehicle: Klucel (hydroxypropylcellulose) (HPC)
  T/C: 94 % of control
dose: 25.0 mg/kg/injection, schedule: Q01DX005 (ip), vehicle: Klucel (hydroxypropylcellulose) (HPC)
  T/C: 87 % of control and 101 % of control and 104 % of control
[5]
  T/C: 88 % of control and 110 % of control
dose: 72.0 mg/kg/injection, schedule: Q01DX005 (ip), vehicle: Klucel (hydroxypropylcellulose) (HPC)
  T/C: 108 % of control
dose: 100.0 mg/kg/injection, schedule: Q01DX005 (ip), vehicle: Klucel (hydroxypropylcellulose) (HPC)
  T/C: 104 % of control and 118 % of control
dose: 120.0 mg/kg/injection, schedule: Q01DX005 (ip), vehicle: Klucel (hydroxypropylcellulose) (HPC)
  T/C: 116 % of control
dose: 333.0 mg/kg/injection, schedule: Q01DX005 (ip), vehicle: Klucel (hydroxypropylcellulose) (HPC)
  T/C: 153 % of control

## O=CC(CO)CC(C=O)n1cnc2c(=O)[nH]cnc21 (stereo unspecified)
dose: 25.0 mg/kg/injection, schedule: Q01DX005 (ip), vehicle: saline
  T/C: 122 % of control and 124 % of control
dose: 100.0 mg/kg/injection, schedule: Q01DX005 (ip), vehicle: saline
  T/C: 151 % of control
dose: 200.0 mg/kg/injection, schedule: Q01DX005 (ip), vehicle: saline
  T/C: 160 % of control and 170 % of control
dose: 400.0 mg/kg/injection, schedule: Q01DX005 (ip), vehicle: saline
  T/C: 169 % of control and 170 % of control

## Cc1c2ccncc2c(C)c2c1[nH]c1ccccc12
dose: 90.0 mg/kg/injection, schedule: Q04DX002 (ip), vehicle: saline with Tween-80
  T/C: 115 % of control
dose: 134.0 mg/kg/injection, schedule: Q04DX002 (ip), vehicle: saline with Tween-80
  T/C: 156 % of control
dose: 200.0 mg/kg/injection, schedule: Q04DX002 (ip), vehicle: saline with Tween-80
  T/C: 168 % of control
dose: 300.0 mg/kg/injection, schedule: Q04DX002 (ip), vehicle: saline with Tween-80
  T/C: 153 % of control

## COc1nc(C(Cl)(Cl)Cl)c(Cl)c(OC)c1Cl
[5]
  T/C: 114 % of control
dose: 90.0 mg/kg/injection, schedule: Q01DX005 (ip), vehicle: Klucel (hydroxypropylcellulose) (HPC)
  T/C: 124 % of control

## O=C1NC2(CCCCC2)C(=O)N1CCN(CCCl)CCCl
dose: 2.6 mg/kg/injection, schedule: Q01DX009 (ip), vehicle: Klucel (hydroxypropylcellulose) (HPC)
  T/C: 195 % of control
dose: 4.0 mg/kg/injection, schedule: Q01DX009 (ip), vehicle: Klucel (hydroxypropylcellulose) (HPC)
  T/C: 236 % of control
dose: 6.0 mg/kg/injection, schedule: Q01DX009 (ip), vehicle: Klucel (hydroxypropylcellulose) (HPC)
  T/C: 226 % of control
dose: 9.0 mg/kg/injection, schedule: Q01DX009 (ip), vehicle: Klucel (hydroxypropylcellulose) (HPC)
  T/C: 239 % of control

## CCN(CC)CCn1[nH]c2c3ccc(=O)cc3sc3c(NCCN)ccc1c32
[1]
  T/C: 99 % of control
[2]
  T/C: 95 % of control
[3]
  T/C: 106 % of control
[4]
  T/C: 91 % of control

## O=C(Nc1ccccc1)c1c(O)[nH]c(=S)[nH]c1=O
dose: 30.0 mg/kg/injection, schedule: Q01DX009 (ip), vehicle: saline with Tween-80
  T/C: 173 % of control
dose: 44.0 mg/kg/injection, schedule: Q01DX009 (ip), vehicle: saline with Tween-80
  T/C: 181 % of control
dose: 67.0 mg/kg/injection, schedule: Q01DX009 (ip), vehicle: saline with Tween-80
  T/C: 160 % of control
dose: 75.0 mg/kg/injection, schedule: Q01DX009 (ip), vehicle: saline with Tween-80
  T/C: 170 % of control
dose: 100.0 mg/kg/injection, schedule: Q01DX009 (ip), vehicle: saline with Tween-80
  T/C: 173 % of control and 181 % of control
dose: 125.0 mg/kg/injection, schedule: Q01DX009 (ip), vehicle: saline with Tween-80
  T/C: 195 % of control
dose: 150.0 mg/kg/injection, schedule: Q01DX009 (ip), vehicle: saline with Tween-80
  T/C: 197 % of control

## c1ccc(OCC2CO2)c(OCC2CO2)c1 (stereo unspecified)
dose: 60.0 mg/kg/injection, schedule: Q01DX005 (ip), vehicle: saline with Tween-80
  T/C: 171 % of control
dose: 120.0 mg/kg/injection, schedule: Q01DX005 (ip), vehicle: saline with Tween-80
  T/C: 164 % of control and 167 % of control
dose: 240.0 mg/kg/injection, schedule: Q01DX005 (ip), vehicle: saline with Tween-80
  T/C: 252 % of control

## O=[N+]([O-])c1ccc([I+]c2ccccc2)cc1
[6]
  T/C: 124 % of control
dose: 12.5 mg/kg/injection, schedule: Q01DX005 (ip), vehicle: saline with Tween-80
  T/C: 124 % of control
dose: 100.0 mg/kg/injection, schedule: Q01DX005 (ip), vehicle: saline with Tween-80
  T/C: 155 % of control

## N[C@@H](Cc1c[nH]c2ccccc12)C(=O)Nc1nncs1
dose: 18.75 mg/kg/injection, schedule: Q01DX005 (ip), vehicle: saline
  T/C: 99 % of control
dose: 37.5 mg/kg/injection, schedule: Q01DX005 (ip), vehicle: saline
  T/C: 96 % of control
dose: 75.0 mg/kg/injection, schedule: Q01DX005 (ip), vehicle: saline
  T/C: 90 % of control
dose: 150.0 mg/kg/injection, schedule: Q01DX005 (ip), vehicle: saline
  T/C: 92 % of control
dose: 300.0 mg/kg/injection, schedule: Q01DX005 (ip), vehicle: saline
  T/C: 96 % of control

## O=[N+]([O-])c1ccc(N(CCO)CCO)c2c1no[n+]2[O-]
dose: 3.12 mg/kg/injection, schedule: Q01DX005 (ip), vehicle: saline with Tween-80
  T/C: 114 % of control
[6]
  T/C: 124 % of control
